The values that follow are results of earlier work, collected in patent US12276869B1, “WS12-releasing contact lens” (CooperVision International Limited, priority 2022, dated 2025).

For this series the following is noted: incorporated into silicone hydrogel contact lenses.

With `COc1ccc(NC(=O)C2CC(C)CCC2C(C)C)cc1` (stereo not shown) [WS12, N-(4-Methoxyphenyl)-5-methyl-2-(1-methylethyl)cyclohexanecarboxamide], the “stability to autoclave sterilization in silicone hydrogel contact lenses” value is “withstand autoclave sterilization without degradation or leaching into the packaging solution”.
